Assay type in all cases: cell-based
Assay [1] has as its system LoVo human colon cancer cell line. In words: Trypan blue apoptosis with overexpressed mutant p53 or normal LIG4. To be noted: 25 μM and 50 μM, 48 hours. The text has this:
As in Example 12, in order to analyze the degree of apoptosis of Compound B, which is a novel PARP/Tankyrase simultaneous inhibitor, according to the expression of a mutant type p53 and a normal type LIG4 when the p53 genotype is a normal type and an LIG4 genotype is a mutant type, the present inventors treated a novel PARP/Tankyrase simultaneous inhibitor, Compound B, and the competitive drug PARP inhibitor, olaparib, while overexpressing the p53 mutant type and the LIG4 normal type in the LoVo human colon cancer cell line in which the p53 gene is a normal type and an LIG4 genotype is a mutant type. Then, the number of cells was measured by trypan blue staining assay to confirm the degree of apoptosis. The conditions and methods of the above experiment were the same as the methods of RKO cell culturing and transfection methods of Example 12. Compound B, which is a novel PARP/Tankyrase simultaneous inhibitor, and olaparib, which is a competitive drug PARP inhibitor, were treated with each of 25 μM and 50 μM. After 48 hours of culturing, the number of cells was measured by trypan blue staining assay and the degree of apoptosis was confirmed.

The test system of assay [2] is SW1417 colon cancer cell line. In words: MTS cell viability / IC50. To be noted: Homo sapiens. Here is the method: (§1) The present inventors conducted an in vitro cell base assay to analyze the anticancer activity of Compound A, which is a novel PARP/Tankyrase simultaneous inhibitor, in 18 human colon cancer cell lines (Korean Cell Line Bank and ATCC purchased), and the cell viability and IC50 of the cell lines for Compound A, the novel PARP/Tankyrase simultaneous inhibitor, were measured.
(§2) As the experimental conditions and methods, a total of 18 human colon cancer cell lines were cultured in RPMI1640 (Roswell Park Memorial Institute 1640; 10% FBS, 1% penicillin/streptomycin), and each cell line was cultured in 96 well plate for 2×10^3 per well at 37° C. for 24 hours and the novel PARP/Tankyrase simultaneous inhibitor, Compound A, was diluted by a multiple of 2 at a maximum of 100 μM and a minimum of 0.390625 μM (100 μM, 50 μM, 25 μM, 12.5 μM, 6.25 μM, 3.125 μM, 1.5625 μM, 0.78125 μM and 0.390625 μM). After the treatment, it was cultured at 37° C. for 72 hours. As for the drug treatment group and non-treatment group, the cell viability of each cell line was measured by MTS analysis (Promega, CellTiter 96 AQeous One Solution) and the IC50 of each cell line was measured using the PRISM program.
(§3) The present inventors analyzed the correlation of 18 human colon cancer cell lines, an anti-cancer effect of Compound A which is a novel PARP/Tankyrase simultaneous inhibitor and the genotype of the p53 gene through an in vitro cell base assay in the same experimental method as Example 1 in 18 human colon cancer cell lines.

Assay [3] deals with SW480 colon cancer cell line. In words: MTS cell viability / IC50. Conditions: Homo sapiens. On the procedure: as §1, §2, §3
For assay [4], the system named is Ls1034 colon cancer cell line. In words: MTS cell viability / IC50. To be noted: Homo sapiens, LS-1034. Here is the method:
as §1, §2, §3

The subject of assay [5] is HT-29 colon cancer cell line. In words: MTS cell viability / IC50. To be noted: Homo sapiens. On the procedure:
as §1, §2, §3

Assay [6] deals with SW48 colon cancer cell line. In words: MTS cell viability / IC50. To be noted: Homo sapiens. On the procedure:
as §1, §2, §3

Assay [7] has as its system Ls174T colon cancer cell line. In words: MTS cell viability / IC50. To be noted: Homo sapiens. On the procedure:
as §1, §2, §3

Assay [8] concerns Colo320HSR colon cancer cell line. As to the kind of experiment: MTS cell viability / IC50. Conditions: Homo sapiens, COLO-320-HSR. On the procedure:
as §1, §2, §3

Assay [9] relates to HCT-15 colon cancer cell line. In words: MTS cell viability / IC50. Conditions: Homo sapiens. On the procedure:
as §1, §2, §3

The subject of assay [10] is HCT116 colon cancer cell line. As to the kind of experiment: MTS cell viability / IC50. To be noted: Homo sapiens, HCT-116. Here is the method:
as §1, §2, §3

For assay [11], the system named is DLD-1 colon cancer cell line. In words: MTS cell viability / IC50. To be noted: Homo sapiens. On the procedure: as §1, §2, §3
For assay [12], the system named is LoVo colon cancer cell line. In words: MTS cell viability / IC50. Conditions: Homo sapiens. Here is the method:
as §1, §2, §3

The subject of assay [13] is Caco-2 colon cancer cell line. As to the kind of experiment: MTS cell viability / IC50. To be noted: Homo sapiens. Here is the method:
as §1, §2, §3

For assay [14], the system named is Colo205 colon cancer cell line. As to the kind of experiment: MTS cell viability / IC50. Conditions: Homo sapiens, COLO 205. On the procedure:
as §1, §2, §3

For assay [15], the system named is Colo201 colon cancer cell line. As to the kind of experiment: MTS cell viability / IC50. Conditions: Homo sapiens, COLO 201. Here is the method: as §1, §2, §3

`N#Cc1ccc(N2CCN(Cc3ccc4c5c(c(=O)[nH]c4c3)CCCN5)CC2)nc1` [Compound B, 6-{4-[(5-oxo-1,2,3,4,5,6-hexahydrobenzo[h][1,6]naphthyridin-8-yl)methyl]piperazin-1-yl}nicotinonitrile]: the “degree of apoptosis (trypan blue cell count)” value in assay [1] (LoVo overexpressing LIG4 normal type gene vs control group (empty)) and in [1] (LoVo overexpressing p53 mutant type gene vs control group (empty)) was “apoptosis was reduced” throughout.
One may read the IC50 as the concentration that inhibits the measured activity by half. As to `CCOc1cc(CN(C)C)cc2[nH]c(=O)c3c(c12)NCCC3` [Compound A, 8-[(dimethylamino)methyl]-10-ethoxy-1,2,3,4-tetrahydrobenzo[h][1,6]naphthyridin-5(6H)-one], the IC50 in [2] (SW1417, p53 Mutant type cell line) is over 100 µM; in [2] (SW1417, MTS, 72 hours), over 100 µM; in assay [3] (SW480, p53 Mutant type cell line), over 100 µM; in assay [3] (SW480, MTS, 72 hours) it was over 100 µM; in [4] (LS1034, p53 Mutant type cell line), over 100 µM; in [4] (Ls1034, MTS, 72 hours), over 100 µM. In addition, the IC50 in [5] (HT29, p53 Mutant type cell line) was 32.2 µM; in assay [5] (MTS, 72 hours), 32.2 µM; in assay [6] (SW48, p53 Wild-type cell line), over 100 µM; in assay [6] (SW48, MTS, 72 hours) it was over 100 µM; in assay [7] (LS174T, p53 Wild-type cell line), 12.2 µM; in [7] (Ls174T, MTS, 72 hours), 12.2 µM. In addition, the IC50 in [8] (Colo320, MTS, 72 hours) is 8.27 µM; in [8] (Colo320HSR, p53 Mutant type cell line), 8.27 µM; in assay [9] (HCT-15, p53 Mutant type cell line) it was over 100 µM; in assay [9] (HCT-15, MTS, 72 hours), over 100 µM; in [10] (HCT116, p53 Wild-type cell line), 13.2 µM; in [10] (HCT116, MTS, 72 hours), 13.2 µM. The IC50 in assay [11] (DLD-1, p53 Mutant type cell line) stood at 85.6 µM; in [11] (DLD-1, MTS, 72 hours), 85.6 µM; in assay [12] (MTS, 72 hours), 18.6 µM; in assay [12] (p53 Wild-type cell line), 18.6 µM; in [13] (Caco-2, p53 Mutant type cell line), 19.2 µM; in [13] (Caco-2, MTS, 72 hours), 19.2 µM. Also, the IC50 is 24.4 µM in assay [14] (Colo205, p53 Mutant type cell line); 24.4 µM in assay [14] (Colo205, MTS, 72 hours); 28.4 µM in [15] (Colo201, p53 Mutant type cell line); 28.4 µM in assay [15] (Colo201, MTS, 72 hours).

The values above are taken from patent publication US10683553B2, “Method for determining sensitivity to simultaneous inhibitor against PARP and Tankyrase” (THE ASAN FOUNDATION, priority 2015, dated 2020).
